Values of other authors as cited in patent US11147307B2, “Flavor capsules for smoking articles” (PHILIP MORRIS PRODUCTS S.A., priority 2015, dated 2021).

## OC[C@@H](O)[C@@H](O[C@H]1O[C@H](CO)[C@@H](O)[C@H](O)[C@H]1O)[C@H](O)[C@@H](O)CO [maltitol]
  solubility in water: about 200 g/100 ml
